Measurements published in the METLIN SMRT retention time set (Domingo-Almenara et al. 2019).

Assay: gradient 5% acetonitrile 3 min, to 50% in 2 min, to 85% in 15 min, held 3 min, 100 µL/min
Details: column: Zorbax Extend-C18 2.1 x 50 mm; eluents: water / acetonitrile, 0.1% formic acid
Summary of the method: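 Each retention time is based on an adduct peak selected computationally and verified by manual inspection. Measurements used HPLC–quadrupole time-of-flight mass spectrometry in positive and negative ionization mode on mixtures of ~100 pure standards. Chromatography ran on a Zorbax Extend-C18 column (2.1 × 50 mm, 1.8 μm) at 100 μL/min with water and acetonitrile, each containing 0.1% formic acid, and dead and dwell volumes of 40 μL and 900 μL.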

RP-LC retention time [s] | SMILES
808 | Cc1cc(C)cc(NC(=O)N2CCC3(CC2)NC(=O)c2ccccc2N3C)c1
572 | CSc1ccccc1CN1CCC(CNC(=O)c2ccccc2Br)CC1
742 | O=C(NC1CCCc2ccccc21)C1CCN(C(=O)c2cccn2-c2cccnc2)CC1 (stereo not given)
625 | COCc1ncc(C)n1CC1CN(C(=O)C2(c3ccc(OC)cc3)CC2)C1
546 | Cc1ccnc(NS(=O)(=O)c2ccc(NC(=O)CN3C(=O)CCC3=O)cc2)n1
1150 | Cc1ccc(-c2noc(Cn3c(=O)n(C(C)C)c(=O)c4ccccc43)n2)cc1
950 | O=C(C1CCCN(c2ncnc3c2nc2n3CCCCC2)C1)N(Cc1ccco1)C1CCCC1 (stereo not given)
684 | COc1ccc(-c2nc3ccc(C)cn3c2Nc2ccc3c(c2)OCO3)cc1
832 | COc1ccc(-c2cn3c(CC(=O)Nc4ccc(F)c(Cl)c4)csc3n2)cc1
709 | CCNC(=O)C1CCCN(c2nc3ncn(CC(=O)Nc4ccc(Cl)cc4F)c(=O)c3s2)C1 (stereo not given)
761 | Cc1cc(F)ccc1NC(=O)C1CCCN1S(=O)(=O)c1cc2c(cc1C)NC(=O)CO2 (stereo not given)
1360 | Fc1ccc(-c2noc(-c3ccc(N4CCCCC4)nc3)n2)cc1
677 | CC(C)NC(=O)c1ccc(-c2nc3cc(NS(=O)(=O)Cc4ccccc4F)ccc3n2C)cc1
844 | CCOc1ccc2nc(NC(=O)CCc3csc(NC(=O)c4ccco4)n3)sc2c1
669 | CN1CCCn2nc(C3CCN(C(=O)Nc4ccc(F)cc4)CC3)cc2C1=O
927 | Cc1ccc(CNc2c(-c3cccc(Br)c3)nc3ncccn23)cc1
596 | COc1cccc(CN2CCC3(CC2)c2[nH]c4ccccc4c2CCN3C)c1
741 | CNC(=O)c1sc2nc(-c3ccc(F)cc3)c(NCCOC)n2c1C
968 | O=S(=O)(NC1CCCCC1)c1ccc(-c2nnc(C3CCC3)o2)o1
625 | c1ccc(OCCSc2nc3ccccc3[nH]2)cc1
863 | O=C(Nc1ccc2c(c1)OCCO2)c1cc2n(n1)CCCN(Cc1ccc(F)cc1)C2=O
572 | CC(C)NC(=O)N1CCC(c2nc3cccnc3n2C)C1 (stereo not given)

RP-LC retention time [s] | SMILES
928 | CC(C)CCn1c(=O)oc2ccccc21
716 | O=C(NCC1(c2cccs2)CCOCC1)c1cc(=O)c2ccccc2o1
824 | CCS(=O)(=O)N1CCCc2cc(C(=O)N3CCCCCC3)ccc21
969 | CCn1c(C(=O)NCCc2c[nH]c3ccccc23)cc2cc(S(=O)(=O)N(C)C)ccc21
793 | O=C(COc1ccc2c3c(c(=O)oc2c1)CCC3)N[C@H](Cc1c[nH]c2ccccc12)C(=O)O
642 | COc1ccc(OC)c(NC(=O)CN2CCc3[nH]c4c(C)c(C)ccc4c(=O)c3C2)c1
640 | CCCc1ccc(S(=O)(=O)N2CCC(n3cnc4c(C)cccc4c3=O)CC2)cc1
670 | CC(C)c1cc(N2CCN(c3ccccn3)CC2)n2ncc(-c3ccccc3)c2n1
882 | O=C(NC1CCCCC1)N1CCc2nc(-c3ccc(F)cc3)ncc2C1
955 | O=C(Nc1cccc(C(=O)N2CCN(c3ccc(Cl)cc3)CC2)c1)C1=CSCCO1
699 | O=C(NCCc1noc(C2CC2)n1)C1CCCC1
1190 | CCCn1cc(C2=CCN(S(=O)(=O)c3ccc(F)c(Cl)c3)CC2)c2cccnc21
849 | O=C(Cn1nc2c(Oc3cccc(F)c3)nccn2c1=O)Nc1ccc(F)cc1
839 | CCOCCOC(=O)C1=C(C)NC2=C(C(=O)CC(C)(C)C2)C1c1ccccc1OC (stereo not given)
817 | CCc1noc(NC(C)=O)c1-c1ccc(OC)c(S(=O)(=O)N2CCCCCC2)c1
1080 | COc1ccc(Cl)cc1NC(=O)Cn1nc(N2CCSCC2)c2ccccc2c1=O
820 | CN(C)S(=O)(=O)c1ccc2c(c1)N(CC(=O)NCc1ccco1)C(=O)C1CCCCN21 (stereo not given)
582 | CCN1CCC2(CC1)NC(=O)N(CC(=O)Nc1ccc(OC(F)(F)F)cc1)C2=O
853 | CCN1c2ccc(F)cc2C(=O)NC12CCN(C(=O)Cc1ccc(C)cc1)CC2
744 | CC1CCN(C(=O)C2CCN(S(=O)(=O)c3ccc4c(c3)CCCC(=O)N4)CC2)CC1
1030 | Cc1ccccc1-c1noc(C2CCCN2C(=O)Nc2cccc(F)c2)n1 (stereo not given)
622 | Cc1cc(N2CCN(C(=O)Cc3ccccc3Br)CC2)nc2nncn12

RP-LC retention time [s] | SMILES
629 | Cc1cccc2sc(N(CCCN(C)C)C(=O)c3ccccc3Br)nc12
573 | O=C(NCc1ccccn1)c1ccc(=O)n(Cc2ccccc2)n1
646 | Cn1nc(C(=O)N2CCCC(C(=O)NC3CC3)C2)c2c1CCN(C(=O)c1cccc(F)c1)C2 (stereo not given)
967 | O=C(Nc1ccc2c(c1)OCO2)c1noc2c1CCCCC2
629 | CON=C(C(=O)NC1C(=O)N2C(C(=O)O)=C(CSc3nc(C)c(CC(=O)O)s3)CSC12)c1csc(N)n1 (stereo not given)
678 | COc1ccc(NC(=O)N2CCC3(C2)C(=O)Nc2ccccc23)c(OC)c1 (stereo not given)
889 | Cc1cc(C(=O)N2CCCC2c2ccccc2Cl)on1 (stereo not given)
709 | CC(O)(CNC(=O)NC1CCCCC1)c1ccc2c(c1)OCO2 (stereo not given)
740 | CC(C)CC(NC(=O)Cc1ccccc1F)C(=O)Nc1nc2ccccc2[nH]1 (stereo not given)
642 | CNC(=O)c1n[nH]c2c1CC(C)CC2 (stereo not given)
579 | COc1ccc(-c2ccc(CNCC3CCNCC3)o2)cc1Cl
895 | CC1=C(c2ccc(C)cc2)S(=O)(=O)N=C1N1CCCN(C(=O)NCCC(C)C)CC1
778 | COc1ccccc1CNC(=O)CN1CCN(Cc2ccc(F)cc2)C1=O
1130 | CCOc1ccc(C(=O)n2nc(C)c(S(=O)(=O)N3CCCC3)c2C)cc1
782 | O=C(COc1ccccc1)N1CCN(S(=O)(=O)c2cc3c4c(c2)CCC(=O)N4CCC3)CC1
896 | O=C(NCc1cccc(C(F)(F)F)c1)C1CCN(c2nnc(-c3ccccc3)o2)CC1
904 | CC1CCN(C(=O)C2=NN(Cc3nc(C4CC4)no3)c3ccccc3S2(=O)=O)CC1
903 | Cc1cccc(N2C(=O)CN(S(C)(=O)=O)CC2(C)C(=O)NCc2ccc(Cl)cc2)c1C (stereo not given)
941 | COc1ccc(-c2nnc(-c3ccc(C)c(S(=O)(=O)NC(C)(C)C)c3)o2)cc1OC
584 | CCC[C@@H]1C[C@@H](C(=O)N[C@@H]([C@H]2O[C@H](SC)[C@@H](O)[C@@H](O)[C@H]2O)[C@@H](C)O)N(C)C1

SMILES | RP-LC retention time [s]
Cc1ncc2c(n1)C[C@@H]1CC[C@H]2N1C(=O)Nc1ccc(C)c(F)c1 | 728
